Source: PubChem BioAssay AID248 (DTP/NCI, 2004)
“And” between values parts separate entries of the source, which are not always exact repeats. Equal values may be shown once. Inconclusive results and toxic doses are left out. Rule as the data show it: active = T/C of 150% or more; inactive = T/C below 125%.

Tested on: L1210 leukemia ip in BDF1 mice, survival T/C
Assay: NCI In Vivo Anticancer Drug Screen. Data for tumor model L1210 Leukemia (intraperitoneal) in B6D2F1 (BDF1) mice
Settings: endpoint: mean survival time, higher = longer survival
Summary of the method: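 Tumor was transplanted into mice, which were then dosed with test compound or vehicle alone. Survival was recorded for each group, and the treated figure was expressed relative to the control figure.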

[1] = dose: 100.0 mg/kg/injection, schedule: Q04DX002 (ip), vehicle: Klucel (hydroxypropylcellulose) (HPC)
[2] = dose: 12.5 mg/kg/injection, schedule: Q04DX003 (ip), vehicle: Klucel (hydroxypropylcellulose) (HPC)
[3] = dose: 25.0 mg/kg/injection, schedule: Q04DX003 (ip), vehicle: Klucel (hydroxypropylcellulose) (HPC)
[4] = dose: 50.0 mg/kg/injection, schedule: Q04DX003 (ip), vehicle: Klucel (hydroxypropylcellulose) (HPC)
[5] = dose: 100.0 mg/kg/injection, schedule: Q01DX009 (ip), vehicle: saline with Tween-80
[6] = dose: 200.0 mg/kg/injection, schedule: Q01DX009 (ip), vehicle: saline with Tween-80
[7] = dose: 400.0 mg/kg/injection, schedule: Q01DX009 (ip), vehicle: saline with Tween-80
[8] = dose: 50.0 mg/kg/injection, schedule: Q01DX001 (ip), vehicle: carboxymethylcellulose (CMC)
[9] = dose: 100.0 mg/kg/injection, schedule: Q01DX001 (ip), vehicle: carboxymethylcellulose (CMC)
[10] = dose: 200.0 mg/kg/injection, schedule: Q01DX001 (ip), vehicle: carboxymethylcellulose (CMC)
[11] = dose: 400.0 mg/kg/injection, schedule: Q01DX001 (ip), vehicle: carboxymethylcellulose (CMC)
[12] = dose: 50.0 mg/kg/injection, schedule: Q01DX009 (ip), vehicle: Klucel (hydroxypropylcellulose) (HPC)
[13] = dose: 100.0 mg/kg/injection, schedule: Q01DX009 (ip), vehicle: Klucel (hydroxypropylcellulose) (HPC)
[14] = dose: 200.0 mg/kg/injection, schedule: Q01DX009 (ip), vehicle: Klucel (hydroxypropylcellulose) (HPC)
[15] = dose: 400.0 mg/kg/injection, schedule: Q01DX009 (ip), vehicle: Klucel (hydroxypropylcellulose) (HPC)
[16] = dose: 100.0 mg/kg/injection, schedule: Q01DX001 (ip), vehicle: saline
[17] = dose: 200.0 mg/kg/injection, schedule: Q01DX001 (ip), vehicle: saline
[18] = dose: 400.0 mg/kg/injection, schedule: Q01DX001 (ip), vehicle: saline
[19] = dose: 50.0 mg/kg/injection, schedule: Q01DX009 (ip), vehicle: saline with Tween-80
[20] = dose: 100.0 mg/kg/injection, schedule: Q04DX003 (ip), vehicle: Klucel (hydroxypropylcellulose) (HPC)
[21] = dose: 200.0 mg/kg/injection, schedule: Q04DX003 (ip), vehicle: Klucel (hydroxypropylcellulose) (HPC)
[22] = dose: 400.0 mg/kg/injection, schedule: Q04DX003 (ip), vehicle: Klucel (hydroxypropylcellulose) (HPC)
[23] = dose: 200.0 mg/kg/injection, schedule: Q04DX002 (ip), vehicle: Klucel (hydroxypropylcellulose) (HPC)
[24] = dose: 400.0 mg/kg/injection, schedule: Q04DX002 (ip), vehicle: Klucel (hydroxypropylcellulose) (HPC)
[25] = dose: 100.0 mg/kg/injection, schedule: Q04DX003 (ip), vehicle: saline with Tween-80
[26] = dose: 200.0 mg/kg/injection, schedule: Q04DX003 (ip), vehicle: saline with Tween-80
[27] = dose: 400.0 mg/kg/injection, schedule: Q04DX003 (ip), vehicle: saline with Tween-80

Measured: T/C

Nc1cccc(NC(=O)Nc2ccccc2)c1
inactive: dose: 50.0 mg/kg/injection, schedule: Q04DX002 (ip), vehicle: Klucel (hydroxypropylcellulose) (HPC) 105 % of control | [1] 91 % of control

Cc1ccc2ccc3ccc(C)nc3c2n1
inactive: [2] 99 % of control | [3] 97 % of control | [4] 101 % of control

O=C(CC1(Cl)C(F)(F)C(F)(F)C1(F)F)c1ccccc1
inactive: dose: 6.25 mg/kg/injection, schedule: Q01DX009 (ip), vehicle: saline 94 % of control | dose: 12.5 mg/kg/injection, schedule: Q01DX009 (ip), vehicle: saline 94 % of control | dose: 25.0 mg/kg/injection, schedule: Q01DX009 (ip), vehicle: saline with Tween-80 94 % of control | dose: 25.0 mg/kg/injection, schedule: Q01DX009 (ip), vehicle: saline 100 % of control

CCC(C)c1cc([N+](=O)[O-])cc([N+](=O)[O-])c1O (centres undefined)
inactive: [2] 95 % of control | [3] 98 % of control | [4] 96 % of control

CCC1(CC)COC(C)(C(=O)O)OC1
inactive: [5] 96 % of control and 95 % of control | [6] 89 % of control and 101 % of control | [7] 90 % of control

CCCC(C)c1cc([N+](=O)[O-])cc([N+](=O)[O-])c1O (centres undefined)
inactive: dose: 3.12 mg/kg/injection, schedule: Q01DX009 (ip), vehicle: saline with Tween-80 107 % of control | dose: 6.25 mg/kg/injection, schedule: Q01DX009 (ip), vehicle: saline with Tween-80 98 % of control | dose: 12.5 mg/kg/injection, schedule: Q01DX009 (ip), vehicle: saline with Tween-80 91 % of control

CC(=O)/C(N=Nc1ccccc1)=C(\C)O
inactive: [8] 90 % of control | dose: 50.0 mg/kg/injection, schedule: Q01DX009 (sc), vehicle: olive oil, sesame oil, peanut oil 113 % of control | [9] 97 % of control | dose: 100.0 mg/kg/injection, schedule: Q01DX009 (sc), vehicle: olive oil, sesame oil, peanut oil 113 % of control | [10] 87 % of control | dose: 200.0 mg/kg/injection, schedule: Q01DX009 (sc), vehicle: olive oil, sesame oil, peanut oil 101 % of control | [11] 95 % of control

COc1ccc([N+](=O)[O-])cc1NC(=O)N(Cc1ccccc1)c1ccccc1
inactive: [12] 96 % of control | [13] 93 % of control | [14] 96 % of control

COc1ccccc1NC(=O)c1ccccc1
inactive: [13] 89 % of control | [15] 95 % of control

O=S1(=O)c2ccccc2C2CC=CCC21 (centres undefined)
inactive: [8] 98 % of control | [9] 98 % of control | [10] 98 % of control | [11] 93 % of control

COC1CCCC(/C(=C\Br)c2ccccc2)C1 (centres undefined)
inactive: [16] 106 % of control | [17] 106 % of control | [18] 115 % of control

CN(C)c1ccc(/C=N/NC(=O)CNC(=O)Nc2nccs2)c(Cl)c1
inactive: [19] 100 % of control | [5] 89 % of control | [6] 89 % of control

O=C1c2ccccc2C2(c3ccccc3)C=NNC12c1ccccc1 (centres undefined)
inactive: dose: 100.0 mg/kg/injection, schedule: Q01DX001 (ip), vehicle: Klucel (hydroxypropylcellulose) (HPC) 103 % of control | [20] 106 % of control | dose: 200.0 mg/kg/injection, schedule: Q01DX001 (ip), vehicle: Klucel (hydroxypropylcellulose) (HPC) 98 % of control | [21] 97 % of control | dose: 400.0 mg/kg/injection, schedule: Q01DX001 (ip), vehicle: Klucel (hydroxypropylcellulose) (HPC) 95 % of control | [22] 103 % of control

C/C(=N\NS(C)(=O)=O)C(C)(C)C
inactive: dose: 75.0 mg/kg/injection, schedule: Q01DX001 (ip), vehicle: other 103 % of control | dose: 150.0 mg/kg/injection, schedule: Q01DX001 (ip), vehicle: other 103 % of control | dose: 300.0 mg/kg/injection, schedule: Q01DX001 (ip), vehicle: other 97 % of control

ClC(Cl)(Cl)C1OCCOCCO1
inactive: [1] 93 % of control | [23] 97 % of control | [24] 107 % of control

C=C[C@H]1CN2CC[C@H]1C[C@@H]2[C@@H](O)c1ccnc2ccccc12
inactive: [13] 101 % of control | [1] 103 % of control | [14] 93 % of control | [23] 103 % of control | [15] 93 % of control | [24] 96 % of control

CC(C)CCCC(C)C1CCC2C3CC=C4CC(OP(=O)(N5CC5)N5CC5)CCC4(C)C3CCC12C (centres undefined)
inactive: dose: 50.0 mg/kg/injection, schedule: Q01DX001 (sc), vehicle: steriod suspending solution 102 % of control | dose: 100.0 mg/kg/injection, schedule: Q01DX001 (sc), vehicle: steriod suspending solution 96 % of control | dose: 200.0 mg/kg/injection, schedule: Q01DX001 (sc), vehicle: steriod suspending solution 94 % of control | dose: 400.0 mg/kg/injection, schedule: Q01DX001 (sc), vehicle: steriod suspending solution 89 % of control

CC(Cl)CNC(C)C (centres undefined)
inactive: [16] 103 % of control | [17] 92 % of control | [18] 103 % of control

C(=N\N1CCN(/N=C/c2cccc(OCc3ccccc3)c2)CC1)/c1cccc(OCc2ccccc2)c1
inactive: [16] 96 % of control | [17] 87 % of control | [18] 90 % of control

C=C(C)COc1cc(C=NCCCC)c(C)cc1C
inactive: [25] 96 % of control | [26] 102 % of control | [27] 96 % of control

O=C(OCC1OC(OC(=O)c2ccccc2)C(OC(=O)c2ccccc2)C(OC(=O)c2ccccc2)C1OC(=O)c1ccccc1)c1ccccc1 (centres undefined)
inactive: [16] 98 % of control | [17] 98 % of control | [18] 106 % of control

O=C(O)c1ccccc1C(=O)OC1CC2CCC1CC2 (centres undefined)
inactive: dose: 100.0 mg/kg/injection, schedule: Q01DX001 (ip), vehicle: saline with Tween-80 98 % of control | dose: 200.0 mg/kg/injection, schedule: Q01DX001 (ip), vehicle: saline with Tween-80 104 % of control | dose: 400.0 mg/kg/injection, schedule: Q01DX001 (ip), vehicle: saline with Tween-80 100 % of control

NC(=O)NC(NC(=O)NC(NC(N)=O)c1ccco1)c1ccco1 (centres undefined)
inactive: [20] 102 % of control | [21] 96 % of control | [22] 88 % of control

CSCc1cccc(CO)c1
inactive: dose: 100.0 mg/kg/injection, schedule: Q01DX009 (ip), vehicle: acetone 101 % of control | dose: 100.0 mg/kg/injection, schedule: Q04DX003 (ip), vehicle: acetone 98 % of control | dose: 200.0 mg/kg/injection, schedule: Q01DX009 (ip), vehicle: acetone 105 % of control | dose: 200.0 mg/kg/injection, schedule: Q04DX003 (ip), vehicle: acetone 106 % of control | dose: 400.0 mg/kg/injection, schedule: Q01DX009 (ip), vehicle: acetone 97 % of control | dose: 400.0 mg/kg/injection, schedule: Q04DX003 (ip), vehicle: acetone 109 % of control

O=C(O)c1c(-c2nccc3ccccc23)[nH]c(-c2ccccc2)c1S(=O)(=O)O
inactive: dose: 75.0 mg/kg/injection, schedule: Q01DX001 (ip), vehicle: saline 103 % of control | dose: 150.0 mg/kg/injection, schedule: Q01DX001 (ip), vehicle: saline 101 % of control

Cc1c(C#N)c2n(c1C)CCCC(=O)N2
inactive: [19] 91 % of control | dose: 50.0 mg/kg/injection, schedule: Q04DX003 (ip), vehicle: saline with Tween-80 101 % of control | [5] 90 % of control | [25] 88 % of control | [6] 91 % of control | [26] 97 % of control | [7] 88 % of control | [27] 92 % of control

CC(=S)Nc1ccccc1
inactive: dose: 25.0 mg/kg/injection, schedule: Q01DX009 (ip), vehicle: Klucel (hydroxypropylcellulose) (HPC) 101 % of control | [12] 104 % of control | [13] 95 % of control
